US9107948B2, “Compounds for diagnosing diseases associated with the expression of MUC5AC” (Guerbet, priority 2010, dated 2015)
Values joined by “and” are separate entries in the source; they are usually repeats but may differ in a detail not shown here. Equal values may be shown once. Positions of bridges follow the written chain, without caps; N, C: chain ends. Residues, ends and D or L forms follow the SMILES beside them. No end group written: not given here.

How the values were obtained:
MUC5AC = molecular target: T1, MUC5AC (Homo sapiens, UniProt P98088); test: Labeling of tissue sections with biotinylated peptide (specificity); conditions: FIG. 4
T1 construct: Sections of healthy gastric and colonic mucosae and of human colorectal adenoma; from tissue; host or cells: paraffin sections of human gastric epithelium and colorectal adenoma
Method: (§1) Sections of healthy gastric and colonic mucosae and of human colorectal adenoma (5 μm thick) were fixed for 24 h with 4% paraformaldehyde and embedded in paraffin. For the labeling, the sections were first of all deparaffinized in toluene and rehydrated in 95% alcohol. After rinsing in water, the slides are brought to boiling for 10 minutes in a citrate buffer (50 mM, pH 4). Once the temperature of the buffer has returned to 25-30° C., the slides are then rinsed with PBS and then successively incubated for 15 minutes in a 0.15% hydrogen peroxide (H2O2) solution and a kit for blocking the endogenous biotin for 1 h. The sections are then blocked using a milk-enriched buffer for 1 h at ambient temperature, and are then incubated at 4° C. for 18 h with the peptides at various concentrations (20 μM, 10 μM, 1 μM, 0.2 μM, 0.04 μM) or the antibodies (MUC5AC: PM8 at a 1/100 dilution and MUC2: Lum2-3 at a 1/100 dilution) diluted in PBS. The biotinylated peptides bound to the target are visualized using goat anti-biotin antibodies incubated for one hour at ambient temperature and then diluted in PBS at 1 μg/ml. A second incubation for one hour at ambient temperature is carried out in the presence of peroxidase-labeled anti-goat antibodies at 0.2 μg/ml diluted in PBS supplemented with 0.1% of Tween-20. […]

MUC2 glycoprotein = molecular target: T2, MUC2 glycoprotein (Homo sapiens, UniProt Q02817); test: Labeling of colonic adenoma sections, recognition of MUC2; conditions: FIG. 4
T2 construct: Sections of healthy gastric and colonic mucosae and of human colorectal adenoma; from tissue; host or cells: paraffin sections of human colonic adenoma
Method: as §1

[1] = molecular target: mouse MUC5AC glycoprotein; test: ELISA on MUC5AC purified from mouse stomach; assay type: binding; conditions: ELISA (FIG. 2), read-out: apparent dissociation constant K*d
Method: (§2) The interaction between the peptide and MUC5AC is evaluated by means of an ELISA assay. The mucin MUC5AC (purified from pieces of human tumor on the basis of mucin extraction and purification protocols described in literature) is immobilized on a plate at the concentration of 12.5 μg/ml overnight at 4° C. The nonspecific sites are then saturated in a buffer enriched with milk, for 2 hours at 4° C. After several rinses, the peptide CPSIYPLLC (SEQ ID No: 2) coupled to biotin is incubated at increasing concentrations (10^−3M and 10^−6M) for 2 hours at 37° C. The biotinylated peptides bound to MUC5AC are visualized using goat anti-biotin antibodies incubated for one hour at ambient temperature and then diluted in PBS at 1 μg/ml. After removal of the unbound antibodies, a second incubation for one hour at ambient temperature is carried out in the presence of peroxidase-labeled anti-goat antibodies at 0.2 μg/ml, diluted in PBS supplemented with 0.1% of Tween-20. The peroxidase coloration reaction is carried out in the presence of H2O2-enriched ABTS. The measurement of the OD at 405 nm makes it possible to calculate the K*d MUC5AC value. The interaction between the peptide and MUC5AC is also evaluated by means of the previously described ELISA assay on the mucin MUC5AC purified beforehand from mouse and rat stomach.

rat MUC5AC glycoprotein = test: ELISA on MUC5AC purified from rat stomach; assay type: binding; conditions: ELISA (FIG. 2), read-out: apparent dissociation constant K*d
Method: as §2

[2] = Particle size (PCS) and magnetic characterization; assay type: physicochemical
Method: Determined by PCS (Malvern 4700 instrument, laser 488 nm at 90°) on a sample diluted to ˜1 millimolar with water for injection filtered through 0.22 μm.

[3] = system: MUC5AC-negative tumor (HCT116 xenograft); test: Molecular MRI (RARE, 7T) of tumor in mice bearing MUC5AC-negative tumor; assay type: in vivo
Method: (§3) The selected imaging parameters are the following: • RARE (rapid acquisition with relaxation enhancement) sequence (7T) • TR/TEeff=3000/48.7 ms, • RARE factor=4, • NEX=4, • Matrix=256×256 • FOV=2.3 cm • slice thickness=1 mm • 20 axial slices • spatial resolution=90 μm • acquisition time=12 min 48 s Mice: • bearing an MUC5AC-positive tumor were injected with PEG750-C60c (100 μmol/kg), • bearing an MUC5AC-positive tumor were injected with the control compound (100 μmol/kg) and • bearing an MUC5AC-negative tumor were injected with PEG750-C60c (100 μmol/kg).

[4] = system: MUC5AC-positive tumor (HT29 5M21 xenograft); test: Molecular MRI (RARE, 7T) of tumor in mice bearing MUC5AC-positive tumor; assay type: in vivo
Method: as §3

mouse gastric tissue = test: Detection of USPIOs on mouse stomach sections after in vivo injection (anti-PEG antibody); conditions: section of mouse stomach
Source text: (§4) In the experiments carried out, the PEG750-C60C was detected using the anti-PEG antibody on HT295M21 xenograft, on HCT116 xenograft and on a section of mouse stomach without counterstaining. The control compound was detected on a section of mouse stomach without counterstaining. The sections were visualized in parallel with an anti-MUC5AC antibody on HT295M21 and HCT116.

[5] = system: mucin MUC5AC in the stomach; test: Molecular MRI (RARE, 7T) of the stomach of tumor-bearing mice; assay type: in vivo; conditions: mice bearing MUC5AC-positive or -negative tumor
Method: as §3
MUC5AC. […] Indeed, using PEG750-C60c at equal concentration in animals having tumors with an opposite MUC5AC expression profile, but having the same mucin secretion characteristic in the stomach, a differential response was clearly observed in the tumor, but not in the stomach.

[6] = system: HT295M21 and HCT116 xenografts; test: Detection of USPIOs on tumor xenograft tissue after in vivo injection (anti-PEG antibody); set-up: species or system mice
Source text: as §4

Relaxivity measurements = assay type: physicochemical; conditions: 37° C.
Method: […] The longitudinal relaxation time T1 is measured using an inversion recovery sequence and the transverse relaxation time T2 is measured using a CPMG technique.
The relaxation rates R1 (=1/T1) and R2 (=1/T2) were calculated for various concentrations of total metal (ranging from 0.1×10^−3 to 1×10^−3 mol/l) in aqueous solution at 37° C. The correlation between R1 or R2 as a function of the concentration is linear, and the slope represents the relaxivity r1 (R1/C) or r2 (R2/C) expressed as (1/second)×(1/mmol/l), i.e. (mM^−1·s^−1).

[7] = system: HT29-5M21 cells (MUC5AC cells); test: USPIO binding test on colonic cell model, iron assay by relaxometry; assay type: cell-based, human; conditions: increasing concentrations 1/2/4/8 mM iron, 1 H at 37° C.
Method: (§5) After 21 days of culture for HT29-5M21 cells (MUC5AC cells), the literature reports that MUC5AC is massively expressed. […] The cells are rinsed with PBS at 4° C. and then directly brought into contact with 0.5 ml of USPIO diluted in PBS, for 1 H at 37° C. (incubator, 5% CO2). The USPIOs are tested at various iron concentrations of 1/2/4/8 mM on each of the lines. After the supernatant has been drawn off, the cells are washed twice with PBS and then scraped so as to subsequently be taken up with 250 μl of PBS (twice). The suspensions are subsequently freeze-dried and then taken up with 100 μl of a 5N HCl solution for 4 H at 80° C. in a water bath. The assay is then carried out using Paris reagent, before carrying out the relaxometry (Bruiser Minispec 60 MHz). The secretion of MUC5AC by the HT29 model and the absence of secretion with HCT116 were verified in the study.

[8] = Plasma kinetics: iron concentration by relaxometry in plasma of imaged mice; assay type: in vivo; conditions: 1 h-1 h 30 after injection
Source text: IV.2 Plasma Kinetics: Calculation of the Concentration of USPIO Contained in the Plasma of the Imaged Mice
It can be observed in table 3 that the iron concentrations are proportional to the dose of product injected.

[9] = system: HCT116 cells (control cells, MUC5AC-negative); test: USPIO binding test on colonic control cells, iron assay by relaxometry; assay type: cell-based, human; conditions: control cells HCT116, 1/2/4/8 mM iron, 1 H at 37° C.
Method: as §5

## CC[C@H](C)[C@@H]1NC(=O)[C@H](CO)NC(=O)[C@@H]2CCCN2C(=O)[C@@H](N)CSSC[C@@H](C(N)=O)NC(=O)[C@H](CC(C)C)NC(=O)[C@H](CC(C)C)NC(=O)[C@@H]2CCCN2C(=O)[C@H](Cc2ccc(O)cc2)NC1=O [peptide CPSIYPLLC, Cys-Pro-Ser-He-Tyr-Pro-Leu-Leu-Cys] (H-CPSIYPLLC-NH2; disulfide 1-9; N-terminus and C-terminus assumed)
MUC5AC
  labeling of sections of healthy human gastric epithelia: demonstrate the specificity
MUC2 glycoprotein
  recognition of the MUC2 glycoprotein on sections of colonic adenoma: absence of recognition
[1]
  Kd: 549 µM
Rat MUC5AC glycoprotein
  Kd: 659 µM

## PEG750-C60c (CPSIYPLLC; not fully specified; cysteine pairing not given here; also: PEG750 attached, site not given here, coupled to iron particle)
[2]
  Magnetic diameter: 7.2 nm
  Magnetization at saturation (magn.): 70 Am^2/Kg
  hydrodynamic diameter Z ave (PCS): 28 nm
[3]; 100 μmol/kg
  MRI image contrast of the tumor: no variation in contrast
[3]; same conditions (20 and 100 μmol of iron/kg)
  change of signal in the tumor: no change or a slight increase
[4]; 20 μmol of iron/kg, post-contrast
  signal variation in the tumor (ΔSI): −10%
[4]; 100 μmol of iron/kg
  signal variation in the tumor (ΔSI): −15%
[4]; 100 μmol/kg
  MRI image contrast of the tumor: negative contrast image
Mouse gastric tissue
  labeling / accumulation in the mouse gastric tissue: specific labeling
[5]
  MRI image of the gastric region in contact with the lumen: clear darkening
[6]
  accumulation in the tumors: only when they secrete MUC5AC
Relaxivity measurements; 20 MHz
  relaxivity r1: 30.54 s⁻¹ mM⁻¹
Relaxivity measurements; 60 MHz
  relaxivity r1: 14.94 s⁻¹ mM⁻¹
[7]
  iron concentration on the cells: significantly increases
[8]; MUC5AC-negative mice, 20 μmol Fe/kg
  Iron concentration in the plasma: 471.5 µmol/L
[8]; MUC5AC-negative mice, 20 μmol Fe/kg, listed as PEG750-C60C
  Iron concentration in the plasma: 442.5 µmol/L and 350.7 µmol/L and 337 µmol/L
[8]; MUC5AC-negative mice, 100 μmol Fe/kg
  Iron concentration in the plasma: 2806 µmol/L and 3638 µmol/L
[8]; MUC5AC-positive mice, 20 μmol Fe/kg
  Iron concentration in the plasma: 486.8 µmol/L and 380 µmol/L
[8]; MUC5AC-positive mice, 20 μmol Fe/kg, listed as PEG750-C60C
  Iron concentration in the plasma: 312.4 µmol/L
[8]; MUC5AC-positive mice, 40 μmol Fe/kg
  Iron concentration in the plasma: 909.6 µmol/L
[8]; MUC5AC-positive mice, 100 μmol Fe/kg
  Iron concentration in the plasma: 1555.5 µmol/L
[8]; MUC5AC-positive mice, 100 μmol Fe/kg, listed as PEG750-C60C
  Iron concentration in the plasma: 2590 µmol/L and 3871 µmol/L and 1959 µmol/L
[9]
  iron concentration on the cells: does not change proportionally
